# US6565864B2, “Skin care product containing retinoids and phytoestrogens in a dual compartment package” (Unilever Home & Personal Care USA, a division of Conopco, …, priority 2000, dated 2003)
# Where two headings read alike, the source gives them in different places.
# Tests used:
# CRABP-2 = CRABP-2 protein expression in human adult fibroblasts (dot blot immunostaining) as a measure of retinoid activity; type: cell-based; settings: for CRABP-2 % as Control: control = 100%; for CRABP-2 production: human adult fibroblasts; for Synergy of phytoestrogen with retinoids (in words): soluble form, CRABP-2 in fibroblasts
# Experimental: Human adult fibroblasts obtained from sun-protected inner arm of 25-30 year […] volunteer were used in this. Cells were grown in 1:1 DMEM/Hams F12 media containing 10% FBS, maintained at 37° C. in a 5% CO2 atmosphere under normal atmosphere oxygen tension. Third passage adult fibroblasts were grown in DMEM media with 10% FBS in 12-well plates at a seeding density of 2500 cells/ml/well. The cells at 80% confluence were rinsed in serum free and phenol red free (PRF) DMEM media twice. Pre-treatment with phyto-compounds for 4 hours was conducted and then dosed with retinoids and was incubated for 48 hours. After the incubation, the wells were washed twice with 1×PBS and the cell monolayer was harvested in 100 μl cell lysis buffer (contains 1×PBS, 1% Triton X, 0.5% sodium deoxycholate, 0.1% SDS containing protease inhibitor (10 mg/ml PMSF in isopropanol, 10 μl/ml). The suspension was spun at 14000 rpm for 10 minutes, the supernatant collected and an aliquot of this supernatant was used for protein quantification. Protein concentration was determined using Pierce protein kit. The remainder of 100 μl supernatant (cell lysate) was denatured in a mixture of 40 μl sample buffer (NOVEX) and 0.5% Beta mercaptoethanol (BME) and by boiling the sample for 5 minutes.
# (b) Detection of Cellular Retinoic Acid Binding Protein 2 (CRABP-2)
# These proteins act in regulating the intracellular concentration of retinoids by acting as both storage or shuttle proteins in retinoid metabolism. High or low levels of retinoids cause cell damage, including cell death, therefore regulation of constant levels of retinoids and its binding proteins are very critical for cell survival. The levels of this protein are regulated by the amount of retinoic acid within the cells. Higher cellular levels of retinoids increase the expression of CRABP-2. Therefore, the amount of this protein in the cells, is a measure of the retinoid activity of the cells. Skin cells contain high levels of CRABP-2 both in the epidermis and the dermis. CRABP-2 response to retinoid administration in fibroblasts in vitro is used as a reproducible measure of retinoid bioactivity that predict human skin responses. […] Increase in CRABP-2 is also associated with increased epidermal differentiation, and dermal retinoid action. Therefore, in these studies CRABP-2 expression of fibroblasts was used as a measure of retinoid activity leading to increased epidermal differentiation (skin conditioning and dry skin benefit) and dermal collagen and extracellular matrix synthesis (anti-aging, anti-wrinkling benefits).
# To measure the levels of CRABP-2 in the fibroblasts, the equal amount of protein of cell supernatant were loaded onto nitrocellulose blots in a dot blot apparatus as instructed by the manufacturer, and immunostaining was carried out using monoclonal antibodies to CRABP-2 according to standard procedures. The CRABP-2 protein band was visualized in the Dot Blots using the chemiluminescence system obtained from Santa Cruz Biotechnology (SantaCruz, Calif.). The bands in the film were quantitated by dens tometric scanning, the data from the triplicate samples were calculated as % of control and expressed in the following tables as % increase over control (with control as 100%) +/−SD triplicates.
# [1] = Stability of retinol in aqueous ethanol in the presence of phytoestrogenic flavonoids (OD 360 nm); type: physicochemical; settings: for Retinol degraded: 0.001 %
# Experimental: Retinol was dissolved as a 10% solution in aqueous ethanol (1:1 water:ethanol). This solution was diluted to 0.001%, or approximately 30 μM). This solution gave an OD of about 0.35 absorption unit at 360 nm in a 96 well plate spectrophotometer.
# Aqueous ethanolic stock solutions of the genistein, daidzein were prepared as 0.1%, 0.01% or 0.001%. To 200 μl of 0.001% retinol solution in a 96 well plate was added 20 μl of the flavonoid (i.e. 1-10 dilution) giving a final flavonoid concentration of 0.01, 0.001 and 0.0001%. The plates were mixed and an initial OD reading was taken at 360 nm. The plates were incubated at room temperature in the dark for up to 2 days and subsequent readings were taken at 8, 24 and 48 hours. The OD readings at these time points were normalized to the 0 time point reading. The retinol stability was expressed as % of retinol (OD reading) at 0 time.
# The following tables show the effect of genistein and daidzein on destabilizing retinol. The experiment was done as described in methods section. The OD readings from duplicate measurements were averaged and given here.
# [2] = 100 nM retinoid alone, 48 hours
smiles,measurement,setting,value
O=c1c(-c2ccc(O)cc2)coc2cc(O)ccc12 [Daidzein],CRABP-2 % as Control,CRABP-2; 1 μM phytoestrogen alone,513 +/− 227%
same,CRABP-2 production,CRABP-2; 1 μM phytoestrogen alone,1.49 +/− 0.66
same,Synergy of phytoestrogen with retinoids (in words),CRABP-2,stimulate retinoid activity in a synergistic manner
same,Effect of the flavonoid on retinol stability (in words),[1],marked increases in the instability of retinol
O=c1c(-c2ccc(O)cc2)coc2cc(O)cc(O)c12 [Genistein],CRABP-2 stimulation (in words),"CRABP-2; 1 μM alone, delivered in DMSO: ethanol",stimulated CRABP-2 significantly
same,CRABP-2 % as Control,CRABP-2; 1 μM phytoestrogen alone,655 +/− 247%
same,CRABP-2 production,CRABP-2; 1 μM phytoestrogen alone,1.9 +/− 0.71
same,Synergy of phytoestrogen with retinoids (in words),CRABP-2,stimulate retinoid activity in a synergistic manner
same,Effect of the flavonoid on retinol stability (in words),[1]; 0.0001-0.01% flavonoid with 0.001% retinol,marked increases in the instability of retinol
"CC1=C(/C=C/C(C)=C/C=C/C(C)=C/C(=O)O)C(C)(C)CCC1 [Retinoic acid, reference compound]",CRABP-2 % as Control,CRABP-2; 1 nM retinoid alone,335 +/− 162%
same,CRABP-2 production,"CRABP-2; 1 nM retinoid alone, 48 hours",0.97 +/− 0.47
same,CRABP-2 % as Control,CRABP-2; 10 nM retinoid alone,428 +/− 101%
same,CRABP-2 production,"CRABP-2; 10 nM retinoid alone, 48 hours",1.24 +/− 0.29
CC1=C(/C=C/C(C)=C/C=C/C(C)=C/CO)C(C)(C)CCC1 [Retinol],Retinol degraded,[1]; 8 h,8%
same,Retinol degraded,[1]; 24 h,14%
same,Retinol degraded,[1]; 48 h,19%
CC(=O)OC/C=C(C)/C=C/C=C(C)/C=C/C1=C(C)CCCC1(C)C [Retinyl Acetate],CRABP-2 % as Control,CRABP-2; 100 nM retinoid alone,209 +/− 118%
same,CRABP-2 production,CRABP-2; [2],0.60 +/− 0.32
CCCCC/C=C\C/C=C\CCCCCCCC(=O)OC/C=C(C)/C=C/C=C(C)/C=C/C1=C(C)CCCC1(C)C [Retinyl Linoleate],CRABP-2 % as Control,CRABP-2; 100 nM retinoid alone,181 +/− 110%
same,CRABP-2 production,CRABP-2; [2],0.52 +/− 0.3
CCCCCCCCCCCCCCCC(=O)OC/C=C(C)/C=C/C=C(C)/C=C/C1=C(C)CCCC1(C)C [Retinyl Palmitate],CRABP-2 % as Control,CRABP-2; 100 nM retinoid alone,434 +/− 177%
same,CRABP-2 production,CRABP-2; [2],1.26 +/− 0.51
